In ChEMBL document CHEMBL1201862, “PubChem BioAssay data set” (2004):
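Following 48 hours of exposure in 96-well plates, responses at five concentrations were used to interpolate endpoints linearly. GI50 = concentration required for 50% inhibition of growth.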 Calls of active or inactive are those of the source. Rule as the data show it: active = GI50 up to about 1.1 µM and inactive = higher.

Legend:
Test in all cases: NCI anticancer screen, dose series, 48 h
EKVX = tested on: EKVX
MCF7 = tested on: MCF7
OVCAR-4 = tested on: OVCAR-4
UACC-62 = tested on: UACC-62
Malme-3M = tested on: Malme-3M
SK-MEL-28 = tested on: SK-MEL-28
SK-MEL-2 = tested on: SK-MEL-2
UACC-257 = tested on: UACC-257
HCT-15 = tested on: HCT-15
A549 = tested on: A549
RPMI-8226 = tested on: RPMI-8226
ACHN = tested on: ACHN
BT-549 = tested on: BT-549
CCRF-CEM = tested on: CCRF-CEM
OVCAR-3 = tested on: OVCAR-3
SNB-75 = tested on: SNB-75
HOP-62 = tested on: HOP-62
CAKI-1 = tested on: CAKI-1
SK-OV-3 = tested on: SK-OV-3
MDA-MB-231 = tested on: MDA-MB-231

| SMILES | GI50 (EKVX) | GI50 (MCF7) | GI50 (OVCAR-4) | GI50 (UACC-62) | GI50 (Malme-3M) | GI50 (SK-MEL-28) | GI50 (SK-MEL-2) | GI50 (UACC-257) | GI50 (HCT-15) [µM] | GI50 (A549) | GI50 (RPMI-8226) | GI50 (ACHN) | GI50 (BT-549) | GI50 (CCRF-CEM) | GI50 (OVCAR-3) | GI50 (SNB-75) | GI50 (HOP-62) | GI50 (CAKI-1) | GI50 (SK-OV-3) | GI50 (MDA-MB-231) |
| --- | --- | --- | --- | --- | --- | --- | --- | --- | --- | --- | --- | --- | --- | --- | --- | --- | --- | --- | --- | --- |
| O=S(=O)(c1cc(Cl)ccc1Cl)n1ccnc1 | 61.2 µM (inactive) | 35 µM (inactive) | 43 µM (inactive) | 33.1 µM (inactive) | 31.8 µM (inactive) | > 100 µM (inactive) | 30.5 µM (inactive) | 26.7 µM (inactive) | 24.7 | 58.2 µM (inactive) | 29 µM (inactive) | 76.7 µM (inactive) | 35.4 µM (inactive) | 37.3 µM (inactive) | 46.9 µM (inactive) | 41.8 µM (inactive) | 48 µM (inactive) | 39.7 µM (inactive) | > 100 µM (inactive) | 23.4 µM (inactive) |
| CCOC(=O)[C@@H](Cc1ccc(CCl)cc1)NC(C)=O | 22.2 µM (inactive) | 26.1 µM (inactive) | 19.9 µM (inactive) | 15.9 µM (inactive) | 19.2 µM (inactive) | 27.5 µM (inactive) | 17.1 µM (inactive) | 17.2 µM (inactive) | 27.4 | 97.1 µM (inactive) | 22.6 µM (inactive) | 20.5 µM (inactive) | 31.1 µM (inactive) | 26.7 µM (inactive) | 30.1 µM (inactive) | 26.6 µM (inactive) | 23.9 µM (inactive) | 25.6 µM (inactive) | 98.2 µM (inactive) | 27.1 µM (inactive) |
| COc1ccc(C2CC(c3ccc(NS(=O)(=O)c4cc([N+](=O)[O-])ccc4C)cc3)=NN2S(=O)(=O)c2cc([N+](=O)[O-])ccc2C)cc1 (stereo not given) | 39.7 µM (inactive) | 39 µM (inactive) | 40 µM (inactive) | 26.4 µM (inactive) | 34.8 µM (inactive) | > 100 µM (inactive) | 35.6 µM (inactive) | 30.6 µM (inactive) | 36.2 | 34.5 µM (inactive) | 23.6 µM (inactive) | 63.4 µM (inactive) | 36 µM (inactive) | 65.2 µM (inactive) | 33.4 µM (inactive) | > 100 µM (inactive) | 80 µM (inactive) | 54.2 µM (inactive) | 85.3 µM (inactive) | 43.6 µM (inactive) |
| CC1CCC2(OC1)OC1CC3C4CC=C5CC(OC6OC(CO)C(OC7OC(C)C(OC8OC(C)C(O)C(O)C8O)C(O)C7O)C(O)C6OC6OC(C)C(O)C(O)C6O)CCC5(C)C4CCC3(C)C1C2C (stereo not given) | 0.757 µM (active) | 1.38 µM (inactive) | 0.275 µM (active) | 0.311 µM (active) | 0.363 µM (active) | 0.612 µM (active) | 1.21 µM (inactive) | 0.74 µM (active) | 1.51 | 0.312 µM (active) | 0.382 µM (active) | 1.47 µM (inactive) | 1.66 µM (inactive) | 0.0643 µM (active) | 1.75 µM (inactive) | 0.372 µM (active) | 2.56 µM (inactive) | 1.29 µM (inactive) | 1.07 µM (active) | 0.0628 µM (active) |
| COc1cccc(C23CCCC(C2)NCC3Br)c1OC (stereo not given) | 28.4 µM (inactive) | 21.6 µM (inactive) | 35 µM (inactive) | 21.4 µM (inactive) | > 100 µM (inactive) | 48 µM (inactive) | > 100 µM (inactive) | 8.39 µM (inactive) | 40.9 | 3.66 µM (inactive) | 19.2 µM (inactive) | 21 µM (inactive) | 15.6 µM (inactive) | 21.9 µM (inactive) | 34.5 µM (inactive) | 28.1 µM (inactive) | 38 µM (inactive) | 41.6 µM (inactive) | > 100 µM (inactive) | > 100 µM (inactive) |
| O=C1c2cc(Cl)ccc2N=C(NC2CCCC2)C2CSCN12 (stereo not given) | 46.6 µM (inactive) | > 100 µM (inactive) | > 100 µM (inactive) | > 100 µM (inactive) | > 100 µM (inactive) | > 100 µM (inactive) | 36.2 µM (inactive) | 71.6 µM (inactive) | > 100 | > 100 µM (inactive) | 87.5 µM (inactive) | > 100 µM (inactive) | > 100 µM (inactive) | 45.2 µM (inactive) | 60 µM (inactive) | 52.7 µM (inactive) | > 100 µM (inactive) | > 100 µM (inactive) | > 100 µM (inactive) | > 100 µM (inactive) |
| CSc1ncnc2c1ncn2C1CC(Oc2ccc(C)cc2)C(COc2ccc(C)cc2)O1 (stereo not given) | > 100 µM (inactive) | > 100 µM (inactive) | > 100 µM (inactive) | > 100 µM (inactive) | > 100 µM (inactive) | > 100 µM (inactive) | > 100 µM (inactive) | > 100 µM (inactive) | > 100 | > 100 µM (inactive) | 9.66 µM (inactive) | > 100 µM (inactive) | > 100 µM (inactive) | > 100 µM (inactive) | > 100 µM (inactive) | > 100 µM (inactive) | > 100 µM (inactive) | 24.7 µM (inactive) | > 100 µM (inactive) | > 100 µM (inactive) |
| CCOC(=O)CCC(NC(=O)c1ccc(Nc2cnc3ccc(C(F)(F)F)cc3n2)cc1)C(=O)OCC (stereo not given) | 30.1 µM (inactive) | 27.9 µM (inactive) | 8.2 µM (inactive) | 20.6 µM (inactive) | 41 µM (inactive) | > 100 µM (inactive) | > 96.4 µM (inactive) | > 74.3 µM (inactive) | > 100 | > 34.6 µM (inactive) | > 22.4 µM (inactive) | 24.9 µM (inactive) | 20.9 µM (inactive) | > 100 µM (inactive) | > 100 µM (inactive) | 8.24 µM (inactive) | 14.1 µM (inactive) | 12 µM (inactive) | 16.5 µM (inactive) | 4.59 µM (inactive) |
| O=C1C(Br)=Cc2c(Cl)sc(Cl)c21 | 7.24 µM (inactive) | 2.44 µM (inactive) | 2.74 µM (inactive) | 7.91 µM (inactive) | 8.67 µM (inactive) | 11.6 µM (inactive) | 13.6 µM (inactive) | 5.45 µM (inactive) | 3.69 | 24.6 µM (inactive) | 0.668 µM (active) | 2.91 µM (inactive) | 22.2 µM (inactive) | 0.232 µM (active) | 2.67 µM (inactive) | 13.3 µM (inactive) | 7.45 µM (inactive) | 3.05 µM (inactive) | 15.5 µM (inactive) | 3.13 µM (inactive) |
| O=C(CC1(O)C(=O)Nc2c(Cl)cc(Cl)cc21)c1cccc([N+](=O)[O-])c1 (stereo not given) | 52.5 µM (inactive) | 11.9 µM (inactive) | 14.4 µM (inactive) | 18.8 µM (inactive) | 19.4 µM (inactive) | 32.9 µM (inactive) | 34.3 µM (inactive) | 16 µM (inactive) | 48.5 | 39.5 µM (inactive) | 28.2 µM (inactive) | 23 µM (inactive) | 61 µM (inactive) | 17.4 µM (inactive) | 25 µM (inactive) | 15.2 µM (inactive) | 50.6 µM (inactive) | 32.6 µM (inactive) | 38.6 µM (inactive) | 29.9 µM (inactive) |
